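The compound was tested at five concentrations on cells cultured in 96-well plates, with a 48-hour exposure period. GI50 marks 50% less growth.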 Active and inactive are the calls of the source. No stated cut-off is given here; in the data, active = GI50 up to about 1.1 µM and inactive = higher.
Assays:
Test in all cases: growth of human tumour cells (NCI), 48 h
EKVX = tested on: EKVX
HCT-116 = tested on: HCT-116
SF-295 = tested on: SF-295
SF-539 = tested on: SF-539
A498 = tested on: A498
NCI-H23 = tested on: NCI-H23
SK-MEL-5 = tested on: SK-MEL-5
K562 = tested on: K562
OVCAR-4 = tested on: OVCAR-4
U-251 = tested on: U-251
SN12C = tested on: SN12C
UACC-62 = tested on: UACC-62
TK-10 = tested on: TK-10
LOX IMVI = tested on: LOX IMVI
SK-OV-3 = tested on: SK-OV-3
ACHN = tested on: ACHN
M14 = tested on: M14

SMILES	GI50 (EKVX)	GI50 (HCT-116)	GI50 (SF-295)	GI50 (SF-539)	GI50 (A498)	GI50 (NCI-H23)	GI50 (SK-MEL-5)	GI50 (K562)	GI50 (OVCAR-4)	GI50 (U-251)	GI50 (SN12C)	GI50 (UACC-62)	GI50 (TK-10)	GI50 (LOX IMVI)	GI50 (SK-OV-3)	GI50 (ACHN)	GI50 (M14)
CSC(C1c2ccccc2N(C)C2=NC(=O)N(C)C(=O)C21Cl)S(=O)(=O)c1ccc(C)cc1 (centres undefined)	94.4 µM (inactive)	31.8 µM (inactive)	33.6 µM (inactive)	42 µM (inactive)	> 100 µM (inactive)	27 µM (inactive)	57.4 µM (inactive)	16.7 µM (inactive)	61.2 µM (inactive)	> 100 µM (inactive)	50.4 µM (inactive)	91.8 µM (inactive)	> 100 µM (inactive)	45.8 µM (inactive)	> 100 µM (inactive)	50.6 µM (inactive)	
O=C(O)c1ccc2c(c1)C(=O)N(c1ccc(S(=O)(=O)c3ccc(N4C(=O)c5ccc(C(=O)O)cc5C4=O)cc3)cc1)C2=O	> 100 µM (inactive)	> 100 µM (inactive)	> 100 µM (inactive)	> 100 µM (inactive)	> 100 µM (inactive)	> 100 µM (inactive)	> 100 µM (inactive)	> 100 µM (inactive)	> 100 µM (inactive)	> 100 µM (inactive)	> 100 µM (inactive)	> 100 µM (inactive)	> 100 µM (inactive)	> 100 µM (inactive)	> 100 µM (inactive)	> 100 µM (inactive)	> 100 µM (inactive)
CCOC(=O)c1ccc(-n2c(SCC)nc3sc(C)c(C)c3c2=O)cc1	> 100 µM (inactive)	> 100 µM (inactive)	> 100 µM (inactive)	> 100 µM (inactive)	25.2 µM (inactive)	> 100 µM (inactive)	> 100 µM (inactive)	> 100 µM (inactive)	53.8 µM (inactive)	> 100 µM (inactive)	> 100 µM (inactive)	> 100 µM (inactive)	> 100 µM (inactive)	> 100 µM (inactive)	> 100 µM (inactive)	> 100 µM (inactive)	> 100 µM (inactive)
COc1cc2ccnc(-c3c4ccccc4c(N)c4c(OC)c(OC)ccc34)c2cc1OC	10.4 µM (inactive)		3.18 µM (inactive)	2.09 µM (inactive)	3.02 µM (inactive)	3.21 µM (inactive)	3.27 µM (inactive)	1.55 µM (inactive)	1.97 µM (inactive)	3.37 µM (inactive)	3.47 µM (inactive)	2.79 µM (inactive)	10.4 µM (inactive)	1.52 µM (inactive)	7.13 µM (inactive)	3.54 µM (inactive)	
C(=C1\CCC/C(=C/c2ccccc2)C1=NNc1ccccc1)/c1ccccc1	> 100 µM (inactive)	> 100 µM (inactive)	> 100 µM (inactive)	> 100 µM (inactive)	> 100 µM (inactive)	> 100 µM (inactive)	> 100 µM (inactive)	> 100 µM (inactive)	> 100 µM (inactive)	> 100 µM (inactive)	> 100 µM (inactive)	> 100 µM (inactive)	> 100 µM (inactive)	> 100 µM (inactive)	> 100 µM (inactive)	> 100 µM (inactive)	> 100 µM (inactive)
O=P1(c2ccccc2)CCCCC1	> 100 µM (inactive)	> 100 µM (inactive)	> 100 µM (inactive)	> 100 µM (inactive)	> 100 µM (inactive)	> 100 µM (inactive)	> 100 µM (inactive)	> 100 µM (inactive)	> 100 µM (inactive)	> 100 µM (inactive)	> 100 µM (inactive)	> 100 µM (inactive)	> 100 µM (inactive)	> 100 µM (inactive)	> 100 µM (inactive)	> 100 µM (inactive)	> 100 µM (inactive)
N=C(CC(=O)Nc1ccc(Cl)cc1)Nc1ccccc1	> 100 µM (inactive)	> 100 µM (inactive)	> 100 µM (inactive)	> 100 µM (inactive)	> 100 µM (inactive)	> 100 µM (inactive)	> 100 µM (inactive)	> 100 µM (inactive)	> 100 µM (inactive)	> 100 µM (inactive)	> 100 µM (inactive)	> 100 µM (inactive)	> 100 µM (inactive)	> 100 µM (inactive)	> 100 µM (inactive)	> 100 µM (inactive)	> 100 µM (inactive)
C/C(CC(=O)CCCC(=O)Nc1ccc(Cl)cc1Cl)=N/NC(=O)CC#N	> 100 µM (inactive)	> 100 µM (inactive)	> 100 µM (inactive)	> 100 µM (inactive)	> 100 µM (inactive)	> 100 µM (inactive)	> 100 µM (inactive)	> 100 µM (inactive)	> 100 µM (inactive)	> 100 µM (inactive)	> 100 µM (inactive)	> 100 µM (inactive)	> 100 µM (inactive)	> 100 µM (inactive)	> 100 µM (inactive)	> 100 µM (inactive)	> 100 µM (inactive)
CC(=O)OC1(C)C(=O)OC1(C)C(C)=O (centres undefined)	> 100 µM (inactive)	> 100 µM (inactive)	> 100 µM (inactive)	> 100 µM (inactive)	> 100 µM (inactive)	> 100 µM (inactive)	> 100 µM (inactive)	> 100 µM (inactive)	> 100 µM (inactive)	> 100 µM (inactive)	> 100 µM (inactive)	> 100 µM (inactive)	> 100 µM (inactive)	> 100 µM (inactive)	> 100 µM (inactive)	> 100 µM (inactive)	> 100 µM (inactive)
COc1cc(C2c3cc4c(cc3[C@@H](Nc3ccc(N(C)C)cc3)[C@H]3COC(=O)C23)OCO4)cc(OC)c1O (some centres undefined)	0.456 µM (active)	0.582 µM (active)	0.122 µM (active)	0.316 µM (active)	0.551 µM (active)	0.189 µM (active)	0.873 µM (active)	0.537 µM (active)	9.35 µM (inactive)	0.149 µM (active)	0.34 µM (active)	0.232 µM (active)	2.64 µM (inactive)	0.817 µM (active)	0.212 µM (active)	0.049 µM (active)	0.327 µM (active)
N=c1n(CC(=O)NC23CC4CC(CC(C4)C2)C3)c2ccccc2n1CC(=O)NC12CC3CC(CC(C3)C1)C2	2.26 µM (inactive)	2.03 µM (inactive)	2.06 µM (inactive)	1.92 µM (inactive)	1.7 µM (inactive)	1.74 µM (inactive)	1.82 µM (inactive)	2.82 µM (inactive)	1.79 µM (inactive)	1.66 µM (inactive)	1.87 µM (inactive)	1.96 µM (inactive)	1.66 µM (inactive)	1.63 µM (inactive)	15.7 µM (inactive)	2 µM (inactive)	1.96 µM (inactive)
O=C1/C(=C/c2ccc3c(c2)OCCO3)CCC/C1=C\c1ccc2c(c1)OCCO2	51.3 µM (inactive)	2.53 µM (inactive)	17 µM (inactive)	19.2 µM (inactive)	27.7 µM (inactive)		25.6 µM (inactive)		21.1 µM (inactive)	14.2 µM (inactive)	25.7 µM (inactive)	23 µM (inactive)	36.9 µM (inactive)	8.41 µM (inactive)	83.8 µM (inactive)	39.9 µM (inactive)	19 µM (inactive)

From ChEMBL document CHEMBL1201862, “PubChem BioAssay data set” (2004)
